≈ marks a conversion by molar mass, not a printed value. Calls of active or inactive are those of the source. The calls are words filed in the database; no cut-off is given here.
Columns and labels:
[1] = test system: Staphylococcus aureus; experiment: Antibacterial activity against Staphylococcus aureus MTCC 96 incubated for 24 hrs at 37 degC by well diffusion method; assay type: functional; conditions: MTCC 96, 24 h
[2] = test system: Bacillus subtilis; experiment: Antibacterial activity against Bacillus subtilis MTCC 121 incubated for 24 hrs at 37 degC by well diffusion method; assay type: functional; conditions: MTCC 121, 24 h
[3] = test system: Staphylococcus aureus; experiment: Antibacterial activity against Staphylococcus aureus MLS16 MTCC 2940 incubated for 24 hrs at 37 degC by well diffusion method; assay type: functional; conditions: MLS16 MTCC 2940, 24 h
[4] = test system: Micrococcus luteus; experiment: Antibacterial activity against Micrococcus luteus MTCC 2470 incubated for 24 hrs at 37 degC by well diffusion method; assay type: functional; conditions: MTCC 2470, 24 h
[5] = test system: Raoultella planticola; experiment: Antibacterial activity against Klebsiella planticola MTCC 530 incubated for 24 hrs at 37 degC by well diffusion method; assay type: functional; conditions: MTCC 530, 24 h
[6] = test system: Escherichia coli; experiment: Antibacterial activity against Escherichia coli MTCC 739 incubated for 24 hrs at 37 degC by well diffusion method; assay type: functional; conditions: MTCC 739, 24 h
[7] = test system: Pseudomonas aeruginosa; experiment: Antibacterial activity against Pseudomonas aeruginosa MTCC 2453 incubated for 24 hrs at 37 degC by well diffusion method; assay type: functional; conditions: MTCC 2453, 24 h
[8] = test system: Candida albicans; experiment: Antifungal activity against Candida albicans MTCC 183 incubated for 24 hrs at 30 degC by well diffusion method; assay type: functional; conditions: MTCC 183, 24 h
[9] = test system: Candida albicans; experiment: Antifungal activity against Candida albicans MTCC 227 incubated for 24 hrs at 30 degC by well diffusion method; assay type: functional; conditions: MTCC 227, 24 h
[10] = test system: Candida albicans; experiment: Antifungal activity against Candida albicans MTCC 854 incubated for 24 hrs at 30 degC by well diffusion method; assay type: functional; conditions: MTCC 854, 24 h
[11] = test system: Candida albicans; experiment: Antifungal activity against Candida albicans MTCC 1637 incubated for 24 hrs at 30 degC by well diffusion method; assay type: functional; conditions: MTCC 1637, 24 h
[12] = test system: Candida albicans; experiment: Antifungal activity against Candida albicans MTCC 3017 incubated for 24 hrs at 30 degC by well diffusion method; assay type: functional; conditions: MTCC 3017, 24 h
[13] = test system: Candida albicans; experiment: Antifungal activity against Candida albicans MTCC 3018 incubated for 24 hrs at 30 degC by well diffusion method; assay type: functional; conditions: MTCC 3018, 24 h
[14] = test system: Candida albicans; experiment: Antifungal activity against Candida albicans MTCC 3958 incubated for 24 hrs at 30 degC by well diffusion method; assay type: functional; conditions: MTCC 3958, 24 h
[15] = test system: Candida albicans; experiment: Antifungal activity against Candida albicans MTCC 4748 incubated for 24 hrs at 30 degC by well diffusion method; assay type: functional; conditions: MTCC 4748, 24 h
[16] = test system: Candida albicans; experiment: Antifungal activity against Candida albicans MTCC 7315 incubated for 24 hrs at 30 degC by well diffusion method; assay type: functional; conditions: MTCC 7315, 24 h
[17] = test system: Candida parapsilosis; experiment: Antifungal activity against Candida parapsilosis MTCC 1744 incubated for 24 hrs at 30 degC by well diffusion method; assay type: functional; conditions: Lodderomyces parapsilosis, MTCC 1744, 24 h
[18] = test system: [Candida] aaseri; experiment: Antifungal activity against Candida aaseri MTCC 1962 incubated for 24 hrs at 30 degC by well diffusion method; assay type: functional; conditions: Yamadazyma aaseri, MTCC 1962, 24 h
[19] = test system: Nakaseomyces glabratus; experiment: Antifungal activity against Candida glabrata MTCC 3019 incubated for 24 hrs at 30 degC by well diffusion method; assay type: functional; conditions: MTCC 3019, 24 h
[20] = test system: Pichia kudriavzevii; experiment: Antifungal activity against Candida krusei MTCC 3020 incubated for 24 hrs at 30 degC by well diffusion method; assay type: functional; conditions: MTCC 3020, 24 h
[21] = test system: Pichia sporocuriosa; experiment: Antifungal activity against Issatchenkia hanoiensis MTCC 4755 incubated for 24 hrs at 30 degC by well diffusion method; assay type: functional; conditions: MTCC 4755, 24 h
[22] = test system: Staphylococcus aureus; experiment: Bactericidal activity against Staphylococcus aureus MTCC 96 incubated for 24 hrs; assay type: functional; conditions: MTCC 96, 24 h
[23] = test system: Bacillus subtilis; experiment: Bactericidal activity against Bacillus subtilis MTCC 121 incubated for 24 hrs; assay type: functional; conditions: MTCC 121, 24 h
[24] = test system: Staphylococcus aureus; experiment: Bactericidal activity against Staphylococcus aureus MLS16 MTCC 2940 incubated for 24 hrs; assay type: functional; conditions: MLS16 MTCC 2940, 24 h
[25] = test system: Micrococcus luteus; experiment: Bactericidal activity against Micrococcus luteus MTCC 2470 incubated for 24 hrs; assay type: functional; conditions: MTCC 2470, 24 h
[26] = test system: Raoultella planticola; experiment: Bactericidal activity against Klebsiella planticola MTCC 530 incubated for 24 hrs; assay type: functional; conditions: MTCC 530, 24 h
[27] = test system: Escherichia coli; experiment: Bactericidal activity against Escherichia coli MTCC 739 incubated for 24 hrs; assay type: functional; conditions: MTCC 739, 24 h
[28] = test system: Candida albicans; experiment: Fungicidal activity against Candida albicans MTCC 183 incubated for 24 hrs; assay type: functional; conditions: MTCC 183, 24 h
[29] = test system: Candida albicans; experiment: Fungicidal activity against Candida albicans MTCC 227 incubated for 24 hrs; assay type: functional; conditions: MTCC 227, 24 h
[30] = test system: Candida albicans; experiment: Fungicidal activity against Candida albicans MTCC 854 incubated for 24 hrs; assay type: functional; conditions: MTCC 854, 24 h
[31] = test system: Candida albicans; experiment: Fungicidal activity against Candida albicans MTCC 1637 incubated for 24 hrs; assay type: functional; conditions: MTCC 1637, 24 h
[32] = test system: Candida albicans; experiment: Fungicidal activity against Candida albicans MTCC 3017 incubated for 24 hrs; assay type: functional; conditions: MTCC 3017, 24 h
[33] = test system: Candida albicans; experiment: Fungicidal activity against Candida albicans MTCC 3018 incubated for 24 hrs; assay type: functional; conditions: MTCC 3018, 24 h
[34] = test system: Candida albicans; experiment: Fungicidal activity against Candida albicans MTCC 3958 incubated for 24 hrs; assay type: functional; conditions: MTCC 3958, 24 h
[35] = test system: Candida albicans; experiment: Fungicidal activity against Candida albicans MTCC 4748 incubated for 24 hrs; assay type: functional; conditions: MTCC 4748, 24 h
[36] = test system: Candida albicans; experiment: Fungicidal activity against Candida albicans MTCC 7315 incubated for 24 hrs; assay type: functional; conditions: MTCC 7315, 24 h
[37] = test system: Candida parapsilosis; experiment: Fungicidal activity against Candida parapsilosis MTCC 1744 incubated for 24 hrs; assay type: functional; conditions: Lodderomyces parapsilosis, MTCC 1744, 24 h
[38] = test system: [Candida] aaseri; experiment: Fungicidal activity against Candida aaseri MTCC 1962 incubated for 24 hrs; assay type: functional; conditions: Yamadazyma aaseri, MTCC 1962, 24 h
[39] = test system: Nakaseomyces glabratus; experiment: Fungicidal activity against Candida glabrata MTCC 3019 incubated for 24 hrs; assay type: functional; conditions: MTCC 3019, 24 h
[40] = test system: Pichia kudriavzevii; experiment: Fungicidal activity against Candida krusei MTCC 3020 incubated for 24 hrs; assay type: functional; conditions: MTCC 3020, 24 h
[41] = test system: Pichia sporocuriosa; experiment: Fungicidal activity against Issatchenkia hanoiensis MTCC 4755 incubated for 24 hrs; assay type: functional; conditions: MTCC 4755, 24 h
[42] = test system: Candida albicans; experiment: Antibiofilm activity against Candida albicans MTCC 227 after 24 hrs by crystal violet staining based assay; assay type: functional, organism-based; conditions: MTCC 227, 24 h
[43] = test system: Micrococcus luteus; experiment: Antibiofilm activity against Micrococcus luteus MTCC 2470 after 24 hrs by crystal violet staining based assay; assay type: functional, organism-based; conditions: MTCC 2470, 24 h
[44] = test system: Staphylococcus aureus; experiment: Antibiofilm activity against Staphylococcus aureus MTCC 96 after 24 hrs by crystal violet staining based assay; assay type: functional, organism-based; conditions: MTCC 96, 24 h
[45] = test system: Candida albicans; experiment: Induction of ROS accumulation in Candida albicans MTCC 227 sessile cells at 2 to 8 ug/ml incubated for 24 hrs by DCFH-DA dye based microplate reader analysis; assay type: functional, organism-based

MIC [1]: 7.8 mg/L (≈ 21.6 µM)
MIC [2]: 7.8 mg/L (≈ 21.6 µM)
MIC [3]: 7.8 mg/L (≈ 21.6 µM)
MIC [4]: 3.9 mg/L (≈ 10.8 µM)
MIC [6]: > 250 mg/L
MIC [7]: > 250 mg/L
MIC [8]: 7.8 mg/L (≈ 21.6 µM)
MIC [9]: 3.9 mg/L (≈ 10.8 µM)
MIC [10]: 3.9 mg/L (≈ 10.8 µM)
MIC [11]: 15.6 mg/L (≈ 43.2 µM)
MIC [12]: 7.8 mg/L (≈ 21.6 µM)
MIC [13]: 7.8 mg/L (≈ 21.6 µM)
MIC [14]: 15.6 mg/L (≈ 43.2 µM)
MIC [15]: 7.8 mg/L (≈ 21.6 µM)
MIC [16]: 31.2 mg/L (≈ 86.3 µM)
MIC [17]: 15.6 mg/L (≈ 43.2 µM)
MIC [18]: 7.8 mg/L (≈ 21.6 µM)
MIC [19]: 7.8 mg/L (≈ 21.6 µM)
MIC [20]: 15.6 mg/L (≈ 43.2 µM)
MIC [21]: 7.8 mg/L (≈ 21.6 µM)
IC50 [42]: 1.9 mg/L (≈ 5.26 µM)
IC50 [43]: 2.1 mg/L (≈ 5.81 µM)
IC50 [44]: 2.9 mg/L (≈ 8.02 µM)
Structure (SMILES): CCCCCCCCC[C@@H](O)[C@H](CO)n1cc(-c2cccc(O)c2)nn1
MIC [5]: 15.6 mg/L (≈ 43.2 µM)
MBC [22]: 7.8 mg/L (≈ 21.6 µM)
MBC [23]: 15.6 mg/L (≈ 43.2 µM)
MBC [24]: 15.6 mg/L (≈ 43.2 µM)
MBC [25]: 3.9 mg/L (≈ 10.8 µM)
MBC [26]: 15.6 mg/L (≈ 43.2 µM)
MBC [27]: > 250 mg/L
MFC [28]: 15.6 mg/L (≈ 43.2 µM)
MFC [29]: 3.9 mg/L (≈ 10.8 µM)
MFC [30]: 7.8 mg/L (≈ 21.6 µM)
MFC [31]: 15.6 mg/L (≈ 43.2 µM)
MFC [32]: 7.8 mg/L (≈ 21.6 µM)
MFC [33]: 15.6 mg/L (≈ 43.2 µM)
MFC [34]: 31.2 mg/L (≈ 86.3 µM)
MFC [35]: 15.6 mg/L (≈ 43.2 µM)
MFC [36]: 31.2 mg/L (≈ 86.3 µM)
MFC [37]: 15.6 mg/L (≈ 43.2 µM)
MFC [38]: 15.6 mg/L (≈ 43.2 µM)
MFC [39]: 7.8 mg/L (≈ 21.6 µM)
MFC [40]: 31.2 mg/L (≈ 86.3 µM)
MFC [41]: 7.8 mg/L (≈ 21.6 µM)
Activity [45]: Active

Reference: ChEMBL document CHEMBL3822398, “Design, synthesis and in vitro biological evaluation of short-chain C12-sphinganine and its 1,2,3-triazole analogs as potential antimicrobial and anti-biofilm agents” (Eur J Med Chem, 2016)
